# Measured values published in patent US7927785B2, “Methods for in vitro expansion of hematopoietic stem cells” (The Board of Trustees of the University of Illinois, priority 2002, dated 2011).
# Tested on: CpG residue located at −256 position within the γ-globin promoter region
# Assay: COBRA (Combined Bisulfite Restriction Analysis) of DNA methylation
# Format: cell-based, human
# Experimental: DNA was prepared from cultured CD34^+ cells (0.5-2.0×10^6 total cells) using the QIAamp DNA blood Minikit (Qiagen, Valencia, Calif.) according to manufacturer's instructions. The purified DNA was digested with 10-20 units Hind III at 37° C. for one hour followed by two extractions with a 50/50/1 mixture of phenol/chloroform/isoamyl:alcohol saturated with 0.5 M Tris, pH 7.5. The digested DNA was precipitated overnight at −20° C. in the presence of 2.5 volumes ethanol and 0.3 M sodium acetate, pH 7.0. DNA was harvested by centrifugation, washed 2× in 70% ethanol and dissolved in H2O.
# DNA Denaturation was performed by incubation of 1-2 μg DNA in 10-20 μl 0.3 M NaOH at 37° C. for 20 minutes. Bisulfite modification was performed by the addition of 200 μl bisulfite solution (2.5 M sodium metabisulfite, 100 mM hydroquinone) prepared according to the method as described (Clark et al., Nucleic Acid Res. 22:2990-2997, 1994; Raizis et al., Anal. Biocem; 226:161-166, 1995; Xiong et al., Nucleic Acid Res., 2532-2534, 1997), followed by incubation for 4 hours at 50° C. […]
# For COBRA (Combined Bisulfite Restriction Analysis), a 201 bp fragment of the γ-globin promoter region was amplified by two rounds of PCR using doubly nested primers. […] Digested products were analyzed by polyacrylamide gel electrophoresis (5% gel), visualized by staining with ethidium bromide, and quantified by densitometry.
smiles,measurement,setting,value
"Nc1ncn([C@H]2C[C@H](O)[C@@H](CO)O2)c(=O)n1 [5azaD, 5-aza2′deoxycitidine]",% Hypomethylation,"5 days of culture, 5azaD 10−6M, TSA 5 ng/ml, approximated",68%
same,"% Methylation (COBRA, −256 position of γ-globin promoter)","cultured 5 days with cytokines, densitometry",32%
